From US20250099487A1, “COMPOSITION FOR PREVENTING OR TREATING PULMONARY FIBROSIS, COMPRISING TAURODEOXYCHOLIC ACID OR PHARMACEUTICALLY ACCEPTABLE SALT THEREOF AS ACTIVE INGREDIENT” (SHAPERON INC., priority 2022, published 2025) come the findings set out here.

The subject of one data set is TNF-α. Put plainly: Inhibition of TNF-α production in PMA-differentiated U937 macrophages induced with Pam2CSK4 (ELISA). The format is cell-based, human. Conditions: for IC50: Homo sapiens, U-937, U937 macrophages, Pam2CSK4 50 ng/mL, 4 hours. As for the experimental part: (§1) To evaluate the anti-inflammatory efficacy of HY209 and TUDCA, the human monocytic cell line U937 was treated with PMA (phorbol 12-myristate 13-acetate) to induce differentiation into macrophages.
Additionally, the human monocytic cell line U937 was cultured at a density of 5×10^6 cells in a 100 mm dish containing RPMI1640 medium supplemented with 4 nM PMA (phorbol 12-myristate 13-acetate) for 5 hours to induce differentiation into macrophages. The differentiated macrophages were then seeded into a 96-well plate at a density of 50,000 cells per well and incubated for 24 hours to allow for rest. Following this, the medium was replaced with serum-free medium, and the cells were cultured for an additional 12 hours. The medium was then removed from each well, and the cells were treated with 50 ng/mL of Pam2CSK4 (Pam2CysSerLys4) along with HY209 or TUDCA at varying concentrations (HY209: 10, 4, 2, 1, 0.5, 0.25, 0.125, 0.0625, 0.03125 μM; TUDCA: 100, 50, 25, 12.5, 6.25, 3.125, 1.562, 0.76 μM) for 4 hours. The supernatants were then collected, and TNF-α levels were measured using a TNF-α ELISA kit (R&D Systems) according to the manufacturer's instructions (FIG. 7b).

Data set [1] concerns bleomycin-induced idiopathic pulmonary fibrosis animal model. The data set is described as follows: Lung weight changes in bleomycin-induced idiopathic pulmonary fibrosis animal model. The format is in vivo, C57BL/6 mice. The protocol: Specifically, 9-week-old C57BL/6 mice were purchased and allowed to adapt to their environment for one week before the experiment was conducted. […] Water was provided ad libitum, and sterilized feed was used, allowing free access to food. […] The control group was administered saline instead of bleomycin and received a vehicle (0.5% CMC (carboxymethylcellulose) solution) at a dose of 10 mL/kg orally twice daily. Specifically, the mice in each group were sacrificed upon completion of the experiment, and their lungs were excised. The weights of the excised lungs were then measured.

For a further data set, the system named is IL-1β. Put plainly: Inhibition of IL-1β production in PMA-differentiated U937 macrophages induced with BzATP (ELISA). The format is cell-based, human. Particulars: for IC50: Homo sapiens, U-937, U937 macrophages, 12 h pretreatment, BzATP 300 μM 12 h. As for the experimental part:
as §1
Specifically, the human monocytic cell line U937 was seeded at a density of 70,000 cells per well in a 96-well plate and cultured for 24 hours in RPMI1640 medium containing 50 nM PMA (phorbol 12-myristate 13-acetate) to induce differentiation into macrophages. The medium was then removed from each well, and HY209 or TUDCA was administered at varying concentrations (HY209: 1, 0.5, 0.25, 0.125, 0.0625, 0.0312, 0.0156, 0.0078 μM; TUDCA: 1000, 316, 100, 31.6, 10, 3.16, 0.316, 0.1, 0.0316, 0.01, 0.00316 μM) for 12 hours. Subsequently, BzATP (2′(3′)-O-(4-Benzoylbenzoyl)adenosine 5′-triphosphate) was added to each well to achieve a final concentration of 300 μM, and the cells were incubated for an additional 12 hours. The supernatants were then collected, and IL-1β levels were measured using an IL-1β ELISA kit (R&D Systems) according to the manufacturer's instructions (FIG. 7a).

The next data set deals with α-SMA. Put plainly: Immunohistochemical analysis of α-SMA area in lung tissue. It is filed as in vivo, C57BL/6 mice. The protocol:
(§2) Specifically, 9-week-old C57BL/6 mice were purchased and allowed to adapt to their environment for one week before the experiment was conducted. The experimental animals were maintained under conditions of 22±2° C., 55±10% relative humidity, and a 12-hour light/dark cycle. Water was provided ad libitum, and sterilized feed was used, allowing free access to food.
(§3) The pulmonary fibrosis group was orally administered a vehicle (0.5% CMC (carboxymethylcellulose) solution) at a dose of 10 mL/kg twice daily, while the experimental group was orally administered HY209 formulated in a 0.5% CMC solution to achieve final concentrations of 10, 30, and 60 mg/kg, also twice daily. The comparison group (Nintedanib administration group) was orally administered Nintedanib, formulated in a vehicle (0.1% Natrosol; Hydroxyethylcellulose solution) to achieve a final concentration of 60 mg/kg, twice daily. The pulmonary fibrosis group (Natrosol administration group) for comparison with the Nintedanib administration group received 10 mL/kg of 0.1% Natrosol solution orally twice daily. The control group was administered saline instead of bleomycin and received a vehicle (0.5% CMC (carboxymethylcellulose) solution) at a dose of 10 mL/kg orally twice daily.
Specifically, the mice in each group were sacrificed upon completion of the experiment, and their lungs were excised. The excised lungs were embedded in paraffin for histopathological evaluation, and sections were obtained and mounted onto slides. Subsequently, the expression distribution of the fibrosis-related factor α-SMA in the lung tissue was evaluated.
Immunohistochemical analysis of α-SMA was performed using polyclonal anti-α-SMA antibodies. Antigen retrieval was conducted using Target Retrieval Solution pH 6 (PT Link module, DAKO). […] The de novo accumulation level of α-SMA was evaluated using digital image analysis software (Visiopharm®). The results were expressed as the percentage (%) of the α-SMA area.

Data set [2] concerns bleomycin-induced idiopathic pulmonary fibrosis animal model. The data set is described as follows: Histopathological evaluation of pulmonary fibrosis (Crossman's Trichrome, Matsuse modification of the Ashcroft score). The format is in vivo, C57BL/6 mice. The protocol:
Specifically, 9-week-old C57BL/6 mice were purchased and allowed to adapt to their environment for one week before the experiment was conducted. […] Water was provided ad libitum, and sterilized feed was used, allowing free access to food. […] The control group was administered saline instead of bleomycin and received a vehicle (0.5% CMC (carboxymethylcellulose) solution) at a dose of 10 mL/kg orally twice daily. Specifically, the mice in each group were sacrificed upon completion of the experiment, and their lungs were excised. The excised lungs were embedded in paraffin for histopathological evaluation and stained according to the Crossman's Trichrome method (Gray P. The Microtomist's Formulary and Guide. Published by Robert E. Krieger Publishing Co.). The histological changes in the lungs were assessed using the Matsuse modification of the Ashcroft score, as presented in Table 2 (Ashcroft H et al. J Clin Pathol (1988) 41:467-70; Matsuse T et al. Eur Respir J (1999) 13:71-77). [table]

The test system of data set [3] is human lung fibroblast cell line MRC5. The data set is described as follows: qPCR of fibrosis-related factors in TGF-β-treated MRC5 cells. The format is cell-based. Conditions: MRC5, TGF-β1 5 ng/mL, 48 hours. The protocol: Specifically, the human lung fibroblast cell line MRC5 was seeded at a density of 2×10^5 cells per well in a 6-well plate and incubated overnight to allow cell attachment. Subsequently, the medium was removed, and the cells were treated with TGF-β1 at a concentration of 5 ng/mL along with HY209 or TUDCA at concentrations of 0, 0.1, 1, and 10 μM, and cultured for 48 hours before collecting the cells. Following this, RNA was extracted from the cells using the RNeasy Mini Kit (QIAGEN), and cDNA was synthesized using Maxime™ RT PreMix (LiliF Diagnostic). qPCR measurements were conducted using Power SYBR™ Green PCR Master Mix (Thermo Scientific) in accordance with the manufacturer's instructions. Additionally, primers specific for Col1α1, α-SMA, and PAI-1 were utilized to assess their expression, and GAPDH was measured as the internal standard.

A short description of data set [4]: Body weight changes in bleomycin-induced idiopathic pulmonary fibrosis animal model. It is filed as in vivo, C57BL/6 mice. Conditions: HY209 administration group vs control group; oral BID Day 7-Day 21; measured daily. The protocol:
as §2, §3
Specifically, the body weight of the mice in each group was measured daily throughout the course of the experiment.

The mark [5] stands for this setting: 10 mg/kg oral BID Day 7-21, compared to the pulmonary fibrosis group.
Where [6] appears, read: 60 mg/kg oral BID Day 7-21, compared to the pulmonary fibrosis group.
Where [7] appears, read: 60 mg/kg oral BID Day 7-21, compared to the Natrosol administration group.

As for `C[C@H](CCC(=O)NCCS(=O)(=O)O)[C@H]1CC[C@H]2[C@@H]3CC[C@@H]4C[C@H](O)CC[C@]4(C)[C@H]3C[C@H](O)[C@]12C` [HY209, sodium taurodeoxycholate], in the data set on TNF-α (HY209 vs TUDCA), the “IC50 for TNF-α, times lower than that of TUDCA” value worked out at 36 times. For the same compound, the half-maximal inhibitory concentration (IC50) came out at 360 nM with TNF-α and 44 nM with IL-1β. For the same compound, the lung weight entry in data set [1] (setting [5]) and in data set [1] (setting [6]) was “statistically significantly decreased” each time. The “IC50 for IL-1β, times lower than that of TUDCA” value in the data set on IL-1β (HY209 vs TUDCA) was 34 times. In addition, the α-SMA area result with α-SMA (10 mg/kg oral BID Day 7-21, compared to the pulmonary fibrosis group and the Natrosol administration group) is “significantly decreased”; in the data set with α-SMA (HY209 60 mg/kg oral BID Day 7-21, compared to the pulmonary fibrosis group and the Natrosol administration group), “significantly decreased”. Also, the “pulmonary fibrosis (Ashcroft score)” value in data set [2] (setting [5]) and in data set [2] (setting [6]) was “statistically significantly decreased” in each case. For the same compound, the Col1α1 expression entry in data set [3] (0.1 μM), in data set [3] (1 μM) and in data set [3] (10 μM) was “reduced the expression” in each case. Further, the PAI-1 expression result in data set [3] (0.1 μM), in data set [3] (1 μM) and in data set [3] (10 μM) was “inhibition” each time. In addition, the α-SMA expression entry in data set [3] (0.1 μM), in data set [3] (1 μM) and in data set [3] (10 μM) was “inhibition” in each case. Also, the body weight changes result in data set [4] is reported as “no significant differences”.

As for `COC(=O)c1ccc2c(c1)NC(=O)/C2=C(\Nc1ccc(N(C)C(=O)CN2CCN(C)CC2)cc1)c1ccccc1` [Nintedanib, reference compound], the lung weight entry in data set [1] (setting [7]) was “significant decrease”. Moreover, the α-SMA area entry in the data set on α-SMA (Nintedanib 60 mg/kg oral BID Day 7-21, compared to both the pulmonary fibrosis group and the Natrosol administration group) is “significant reduction”. Further, the “pulmonary fibrosis (Ashcroft score)” value in data set [2] (setting [7]) is listed as “significant reduction”.

As for `C[C@H](CCC(=O)NCCS(=O)(=O)O)[C@H]1CC[C@H]2[C@@H]3[C@@H](O)C[C@@H]4C[C@H](O)CC[C@]4(C)[C@H]3CC[C@]12C` [TUDCA, tauroursodeoxycholic acid, reference compound], the half-maximal inhibitory concentration (IC50) turned out to be 13100 nM with TNF-α and 1500 nM with IL-1β. Also, the Col1α1 expression entry in data set [3] (0.1 μM) and in data set [3] (1 μM) was “increase in expression” each time. The PAI-1 expression entry in data set [3] (0.1 μM) was “did not demonstrate inhibitory effects”; in data set [3] (1 μM), “did not demonstrate inhibitory effects”; in data set [3] (10 μM) it was “inhibitory effects”. The values for the α-SMA expression entry in data set [3] (0.1 μM), in data set [3] (1 μM) and in data set [3] (10 μM) were “did not demonstrate inhibitory effects”, “did not demonstrate inhibitory effects” and “inhibitory effects”, respectively.
